Source: patent publication US6949381B2, “Immortalized human skin cell lines and novel serum-free medium useful for the production thereof” (Nestec S.A., priority 1995, dated 2005)

Key:
Format in all cases: cell-based, Human
[1] = test system: melanocytes (DM2-NR, normal); test: Induction/inhibition of melanin synthesis in melanocytes; settings: T-Ag expressing melanocyte lines (especially DM2-NR), comparable to normal cells
Description: The melanocytes were treated with the melanogensis inducers tyrosin and theophylline and the melanogenesis inhibitor kojic acid.

collagenase (type I) = test: Collagenase (type I) expression after phorbol ester treatment; settings: immortalized keratinocytes treated with phorbol esters
normal keratinocytes = test: Keratinocyte growth in serum-free media (cell count, FIG. 1); settings: serum free medium
Description: FIG. 1 compares the growth (in terms of cell number) of non-immortalized DKO-NR keratinocytes in three different media, i.e., NR-3, epinephrine-supplemented modified MCDB 153 and MCDB 153 after 6 days.
• 1) Characterization of Keratinocytes Growth in Serum-free Media: primary cell cultures were cultivated in modified MCDB 153 [Boyce et al., J. Tissue Cult. Meth., 9:83-93 (1985); and Pittlekow et al., J. Invest. Dermatol., 86:410-417, 1986] and NR-3 media.
FIG. 1 comprises cell growth in NR-3 and epinephrine-supplemented modified MCDB 153 (keratinocyte growth medium) after 6 days. The modified MCDB 153 medium refers to modified MCDB 153. Keratinocytes were harvested in trypsin/EDTA (0.05%/0.01%) and counted by using a hemocytometer. […] In particular, the results shown in Table 2 compare the growth of keratinocytes in coated and uncoated culture plates. 100,000 keratinocytes were seeded on 3.5 cm plates containing NR-3 medium.

| SMILES | induction/inhibition of melanogenesis [1] | also measured |
| --- | --- | --- |
| O=c1cc(CO)occ1O [kojic acid] | dose dependent | – |
| CCCCCCCCCCCCCC(=O)O[C@@H]1[C@@H](C)[C@@]2(O)[C@@H](C=C(CO)C[C@]3(O)C(=O)C(C)=C[C@@H]23)[C@@H]2C(C)(C)[C@]12OC(C)=O [PMA, phorbol-12-myristate-13-acetate] | – | collagenase (type I) expression (collagenase (type I)): increase of collagenase (type I) expression |
| CNC[C@H](O)c1ccc(O)c(O)c1 [epinephrine] | – | growth of normal keratinocytes (normal keratinocytes): strong growth factor of normal keratinocytes |
| N[C@@H](Cc1ccc(O)cc1)C(=O)O [tyrosin] | dose dependent | – |
| Cn1c(=O)c2[nH]cnc2n(C)c1=O [theophylline] | dose dependent | – |
